{"source": "patent US20240261224A1", "about": "“FORMULATION OF A PAN-JAK INHIBITOR” (KINASET THERAPEUTICS, INC., priority 2022, published 2024)", "experiment": "Phase 1 Part 2 plasma pharmacokinetics (mild asthma)", "assay_type": "in vivo, human", "conditions": "for AUC0-12h / AUC(0-t) / AUC(0-inf) / AUC / Cmax: human, plasma, inhaled", "source_text": "Day 10 pharmacokinetic parameters for Parts 2 and 3 of Phase I are summarized below in Table 28. Part 2 involved the administration of 4 different dose regimens, to subjects with mild asthma naïve to ICS therapy, over a 10-day period. Each separate cohort comprised 6 subjects receiving active treatment with 2 receiving matching placebo. Blood samples were collected to enable the measurement of Compound I concentrations in plasma. The resultant data was used to determine the PK parameters at Day 10 representing the Day on which the final dose was received.", "note": "Read-outs that look alike come from different tables or passages of the source.", "data": [{"smiles": "Cn1c(=O)n([C@H]2CCCN(C(=O)CC#N)C2)c2nc(-c3cnn4ccccc34)ccc21", "note": "[Compound I, (S)-3-(3-(1-methyl-2-oxo-5-(pyrazolo[1,5-a]pyridine-3-yl)-1H-imidazo[4,5-b]pyridine-3(2H)-yl)piperidin-1-yl)-3-oxopropanenitrile]", "values": [{"measurement": "AUC0-24 hours Min", "setting": "8 mg BID, Day 10", "result": "309,050 pg · h/ml"}, {"measurement": "AUC0-last non-zero Max", "setting": "8 mg BID, Day 10", "result": "1,369,314 pg · h/ml"}, {"measurement": "AUC0-last non-zero Min", "setting": "8 mg BID, Day 10", "result": "358,137 pg · h/ml"}, {"measurement": "AUC0-∞ Max", "setting": "8 mg BID, Day 10", "result": "1,369,630 pg · h/ml"}, {"measurement": "AUC0-∞ Min", "setting": "8 mg BID, Day 10", "result": "358,998 pg · h/ml"}, {"measurement": "AUCover dosing interval Max", "setting": "8 mg BID, Day 10", "result": "830,085 pg · h/ml"}, {"measurement": "AUCover dosing interval Min", "setting": "8 mg BID, Day 10", "result": "260,305 pg · h/ml"}, {"measurement": "Cmax Max", "setting": "8 mg BID, Day 10", "result": "91,500 pg/ml"}, {"measurement": "Cmax Min", "setting": "8 mg BID, Day 10", "result": "45,400 pg/ml"}, {"measurement": "Ctrough Geometric mean", "setting": "8 mg BID, Day 10", "result": "17,666 pg/ml"}, {"measurement": "Ctrough Max", "setting": "8 mg BID, Day 10", "result": "40,600 pg/ml"}, {"measurement": "Ctrough Mean", "setting": "8 mg BID, Day 10", "result": "21,835 pg/ml"}, {"measurement": "Ctrough Min", "setting": "8 mg BID, Day 10", "result": "6,090 pg/ml"}, {"measurement": "AUC0-12h", "setting": "0.6 mg, 0.6 mg QD, Day 10, read-out: AUC0-12 hours Geometric mean", "result": 14.9, "unit": "ng·h/mL"}, {"measurement": "AUC0-12h", "setting": "0.6 mg, 0.6 mg QD, Day 10, read-out: AUC0-12 hours Mean", "result": 16.1, "unit": "ng·h/mL"}, {"measurement": "AUC(0-t)", "setting": "0.6 mg, 0.6 mg QD, Day 10, read-out: AUC0-24 hours Geometric mean", "result": 20.3, "unit": "ng·h/mL"}, {"measurement": "AUC(0-t)", "setting": "0.6 mg, 0.6 mg QD, Day 10, read-out: AUC0-24 hours Mean", "result": 22.5, "unit": "ng·h/mL"}, {"measurement": "AUC(0-t)", "setting": "0.6 mg, 0.6 mg QD, Day 10, read-out: AUC0-last non-zero Geometric mean", "result": 23.4, "unit": "ng·h/mL"}, {"measurement": "AUC(0-t)", "setting": "0.6 mg, 0.6 mg QD, Day 10, read-out: AUC0-last non-zero Mean", "result": 26.7, "unit": "ng·h/mL"}, {"measurement": "AUC(0-inf)", "setting": "0.6 mg, 0.6 mg QD, Day 10, read-out: AUC0-∞ Geometric mean", "result": 24.3, "unit": "ng·h/mL"}, {"measurement": "AUC(0-inf)", "setting": "0.6 mg, 0.6 mg QD, Day 10, read-out: AUC0-∞ Mean", "result": 28, "unit": "ng·h/mL"}, {"measurement": "AUC", "setting": "0.6 mg, 0.6 mg QD, Day 10, read-out: AUCover dosing interval Geometric mean", "result": 20.3, "unit": "ng·h/mL"}, {"measurement": "AUC", "setting": "0.6 mg, 0.6 mg QD, Day 10, read-out: AUCover dosing interval Mean", "result": 22.5, "unit": "ng·h/mL"}, {"measurement": "Cmax", "setting": "0.6 mg, 0.6 mg QD, Day 10, read-out: Cmax Geometric mean", "result": 1.86, "unit": "ng/mL"}, {"measurement": "Cmax", "setting": "0.6 mg, 0.6 mg QD, Day 10, read-out: Cmax Mean", "result": 1.97, "unit": "ng/mL"}, {"measurement": "AUC0-12h", "setting": "2 mg, 2 mg QD, Day 10, read-out: AUC0-12 hours Geometric mean", "result": 51.9, "unit": "ng·h/mL"}, {"measurement": "AUC0-12h", "setting": "2 mg, 2 mg QD, Day 10, read-out: AUC0-12 hours Mean", "result": 55.2, "unit": "ng·h/mL"}, {"measurement": "AUC(0-t)", "setting": "2 mg, 2 mg QD, Day 10, read-out: AUC0-24 hours Geometric mean", "result": 71.9, "unit": "ng·h/mL"}, {"measurement": "AUC(0-t)", "setting": "2 mg, 2 mg QD, Day 10, read-out: AUC0-24 hours Mean", "result": 76.4, "unit": "ng·h/mL"}, {"measurement": "AUC(0-t)", "setting": "2 mg, 2 mg QD, Day 10, read-out: AUC0-last non-zero Geometric mean", "result": 82.2, "unit": "ng·h/mL"}, {"measurement": "AUC(0-t)", "setting": "2 mg, 2 mg QD, Day 10, read-out: AUC0-last non-zero Mean", "result": 87.4, "unit": "ng·h/mL"}, {"measurement": "AUC(0-inf)", "setting": "2 mg, 2 mg QD, Day 10, read-out: AUC0-∞ Geometric mean", "result": 83.9, "unit": "ng·h/mL"}, {"measurement": "AUC(0-inf)", "setting": "2 mg, 2 mg QD, Day 10, read-out: AUC0-∞ Mean", "result": 89.2, "unit": "ng·h/mL"}, {"measurement": "AUC", "setting": "2 mg, 2 mg QD, Day 10, read-out: AUCover dosing interval Geometric mean", "result": 71.9, "unit": "ng·h/mL"}, {"measurement": "AUC", "setting": "2 mg, 2 mg QD, Day 10, read-out: AUCover dosing interval Mean", "result": 76.4, "unit": "ng·h/mL"}, {"measurement": "Cmax", "setting": "2 mg, 2 mg QD, Day 10, read-out: Cmax Geometric mean", "result": 6.19, "unit": "ng/mL"}, {"measurement": "Cmax", "setting": "2 mg, 2 mg QD, Day 10, read-out: Cmax Mean", "result": 6.46, "unit": "ng/mL"}, {"measurement": "AUC0-12h", "setting": "4 mg, 4 mg BID, Day 10, read-out: AUC0-12 hours Geometric mean", "result": 194, "unit": "ng·h/mL"}, {"measurement": "AUC0-12h", "setting": "4 mg, 4 mg BID, Day 10, read-out: AUC0-12 hours Mean", "result": 237, "unit": "ng·h/mL"}, {"measurement": "AUC(0-t)", "setting": "4 mg, 4 mg BID, Day 10, read-out: AUC0-24 hours Geometric mean", "result": 241, "unit": "ng·h/mL"}, {"measurement": "AUC(0-t)", "setting": "4 mg, 4 mg BID, Day 10, read-out: AUC0-24 hours Mean", "result": 299, "unit": "ng·h/mL"}, {"measurement": "AUC(0-t)", "setting": "4 mg, 4 mg BID, Day 10, read-out: AUC0-last non-zero Geometric mean", "result": 278, "unit": "ng·h/mL"}, {"measurement": "AUC(0-t)", "setting": "4 mg, 4 mg BID, Day 10, read-out: AUC0-last non-zero Mean", "result": 355, "unit": "ng·h/mL"}, {"measurement": "AUC(0-inf)", "setting": "4 mg, 4 mg BID, Day 10, read-out: AUC0-∞ Geometric mean", "result": 282, "unit": "ng·h/mL"}, {"measurement": "AUC(0-inf)", "setting": "4 mg, 4 mg BID, Day 10, read-out: AUC0-∞ Mean", "result": 359, "unit": "ng·h/mL"}, {"measurement": "AUC", "setting": "4 mg, 4 mg BID, Day 10, read-out: AUCover dosing interval Geometric mean", "result": 194, "unit": "ng·h/mL"}, {"measurement": "AUC", "setting": "4 mg, 4 mg BID, Day 10, read-out: AUCover dosing interval Mean", "result": 237, "unit": "ng·h/mL"}, {"measurement": "Cmax", "setting": "4 mg, 4 mg BID, Day 10, read-out: Cmax Geometric mean", "result": 26.8, "unit": "ng/mL"}, {"measurement": "Cmax", "setting": "4 mg, 4 mg BID, Day 10, read-out: Cmax Mean", "result": 31.5, "unit": "ng/mL"}, {"measurement": "AUC0-12h", "setting": "8 mg, 8 mg BID, Day 10, read-out: AUC0-12 hours Geometric mean", "result": 418, "unit": "ng·h/mL"}, {"measurement": "AUC0-12h", "setting": "8 mg, 8 mg BID, Day 10, read-out: AUC0-12 hours Mean", "result": 458, "unit": "ng·h/mL"}, {"measurement": "AUC(0-t)", "setting": "8 mg, 8 mg BID, Day 10, read-out: AUC0-24 hours Geometric mean", "result": 545, "unit": "ng·h/mL"}, {"measurement": "AUC(0-t)", "setting": "8 mg, 8 mg BID, Day 10, read-out: AUC0-24 hours Mean", "result": 612, "unit": "ng·h/mL"}, {"measurement": "AUC(0-t)", "setting": "8 mg, 8 mg BID, Day 10, read-out: AUC0-last non-zero Geometric mean", "result": 662, "unit": "ng·h/mL"}, {"measurement": "AUC(0-t)", "setting": "8 mg, 8 mg BID, Day 10, read-out: AUC0-last non-zero Mean", "result": 745, "unit": "ng·h/mL"}, {"measurement": "AUC(0-inf)", "setting": "8 mg, 8 mg BID, Day 10, read-out: AUC0-∞ Geometric mean", "result": 664, "unit": "ng·h/mL"}, {"measurement": "AUC(0-inf)", "setting": "8 mg, 8 mg BID, Day 10, read-out: AUC0-∞ Mean", "result": 747, "unit": "ng·h/mL"}, {"measurement": "AUC", "setting": "8 mg, 8 mg BID, Day 10, read-out: AUCover dosing interval Geometric mean", "result": 418, "unit": "ng·h/mL"}, {"measurement": "AUC", "setting": "8 mg, 8 mg BID, Day 10, read-out: AUCover dosing interval Mean", "result": 458, "unit": "ng·h/mL"}, {"measurement": "Cmax", "setting": "8 mg, 8 mg BID, Day 10, read-out: Cmax Geometric mean", "result": 57.7, "unit": "ng/mL"}, {"measurement": "Cmax", "setting": "8 mg, 8 mg BID, Day 10, read-out: Cmax Mean", "result": 60.4, "unit": "ng/mL"}]}]}
